This is an account of results in ChEMBL document CHEMBL5223099, “Covalent cannabinoid receptor ligands - structural insight and selectivity challenges” (RSC Med Chem, 2022).

The structures appear in SMILES notation.

The target of test [1] is T1, Cannabinoid receptor 2 (Homo sapiens, UniProt P34972). The test is described as follows: Binding affinity to wild type human CB2R expressed in HEK293 cells assessed as inhibition constant. In kind it is cell-based.
Test [2] concerns the target T2, Cannabinoid receptor 1 (Homo sapiens, UniProt P21554). The test is described as follows: Binding affinity to CB1R (unknown origin) assessed as inhibition constant. Conditions: filed as antagonist.
In test [3] the target is T2, Cannabinoid receptor 1. Kind of test: Displacement of [3H]- CP55940 from human CB1R expressed in HEK293F cells assessed as inhibition constant incubated for 1 hr by scintillation counter analysis. Conditions: filed as antagonist. It counts as cell-based.
Test [4] addresses Cannabinoid receptor 1 (Rattus norvegicus, UniProt P20272). Kind of test: Antagonist activity at rat CB1R expressed in CHO cells assessed as inhibition of forskolin stimulated cyclic AMP production. In kind it is cell-based.
In test [5] the target is T2, Cannabinoid receptor 1. Kind of test: Antagonist activity at human CB1R assessed as beta arrestin-2 recruitment by measuring inhibition constant. On the technique in general: Arrestin recruitment assays detect the binding of arrestin to an activated receptor.
In test [6] the target is T1, Cannabinoid receptor 2. The test is described as follows: Antagonist activity at human CB2R assessed as beta arrestin-2 recruitment by measuring inhibition constant.

T2 sequence (P21554 whole entry): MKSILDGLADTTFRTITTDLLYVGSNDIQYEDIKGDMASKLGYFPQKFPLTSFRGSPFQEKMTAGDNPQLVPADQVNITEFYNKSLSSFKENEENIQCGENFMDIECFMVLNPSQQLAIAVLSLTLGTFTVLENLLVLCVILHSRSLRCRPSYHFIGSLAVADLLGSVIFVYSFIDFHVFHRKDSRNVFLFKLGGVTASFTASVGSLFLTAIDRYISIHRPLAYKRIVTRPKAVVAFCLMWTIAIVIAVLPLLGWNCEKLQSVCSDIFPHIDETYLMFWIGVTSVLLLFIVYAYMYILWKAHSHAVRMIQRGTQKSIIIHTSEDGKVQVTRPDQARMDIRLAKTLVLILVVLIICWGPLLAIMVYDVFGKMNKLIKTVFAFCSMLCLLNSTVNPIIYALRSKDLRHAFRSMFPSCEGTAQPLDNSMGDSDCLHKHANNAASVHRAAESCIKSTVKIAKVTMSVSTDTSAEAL
T1 sequence (P34972 whole entry): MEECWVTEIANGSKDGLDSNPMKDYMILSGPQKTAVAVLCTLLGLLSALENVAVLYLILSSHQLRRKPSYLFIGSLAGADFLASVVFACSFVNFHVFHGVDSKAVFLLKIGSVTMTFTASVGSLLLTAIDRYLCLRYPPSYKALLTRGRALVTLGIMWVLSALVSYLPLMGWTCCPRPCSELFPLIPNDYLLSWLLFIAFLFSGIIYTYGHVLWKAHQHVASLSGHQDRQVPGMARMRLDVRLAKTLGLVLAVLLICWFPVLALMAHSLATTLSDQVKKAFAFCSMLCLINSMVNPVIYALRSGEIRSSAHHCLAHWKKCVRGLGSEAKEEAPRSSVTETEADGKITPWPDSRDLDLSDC
Cannabinoid receptor 1 (Rattus norvegicus, UniProt P20272), sequence (P20272 whole entry): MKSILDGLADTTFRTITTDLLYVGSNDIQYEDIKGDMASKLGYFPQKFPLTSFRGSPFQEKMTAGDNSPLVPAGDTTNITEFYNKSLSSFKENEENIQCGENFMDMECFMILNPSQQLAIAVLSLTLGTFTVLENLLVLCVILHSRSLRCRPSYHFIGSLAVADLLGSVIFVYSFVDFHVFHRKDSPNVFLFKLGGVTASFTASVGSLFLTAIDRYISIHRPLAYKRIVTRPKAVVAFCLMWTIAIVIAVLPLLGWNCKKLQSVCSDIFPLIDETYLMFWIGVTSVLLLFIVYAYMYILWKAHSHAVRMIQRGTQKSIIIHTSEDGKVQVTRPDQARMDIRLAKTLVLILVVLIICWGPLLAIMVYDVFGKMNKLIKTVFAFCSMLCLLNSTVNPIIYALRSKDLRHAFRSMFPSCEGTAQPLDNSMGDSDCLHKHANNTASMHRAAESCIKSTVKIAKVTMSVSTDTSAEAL

With `CCCCCn1nc(C(=O)NC23CC4CC(CC(C4)C2)C3)c(C)c1-c1ccccc1`, the Ki at Cannabinoid receptor 2 [1] worked out at 0.63 nM.
Consider `Cc1c(C(=O)NC23CC4CC(CC(C4)C2)C3)nn(CCCCSC#N)c1-c1ccccc1`, for which, on Cannabinoid receptor 1 [2], the K was determined as 5.76 nM.
Regarding `Cc1c(C(=O)NN2CCCCC2)nn(-c2ccc(Cl)cc2Cl)c1-c1ccc(C#CCCO[N+](=O)[O-])cc1`, at Cannabinoid receptor 1 [3], the K was 5.1 nM.
On to `CCCCCCC(C)(C)c1cc(OC)c([C@H]2C=C(CO)[C@H]3C[C@@H]2C3(C)C)c(OC)c1`, for which the Ki on Cannabinoid receptor 1 [4] is greater than 10000 nM.
In the case of `Cc1c(C(=O)NC23CC4CC(CC(C4)C2)C3)nn(CCCCCO)c1-c1ccccc1`, the results for the inhibition constant (Ki) on Cannabinoid receptor 1 [5] and at Cannabinoid receptor 2 [6] were 13 nM and 0.075 nM, respectively.

What is called Ki is a dissociation constant, usually derived from enzyme kinetics or from competition with a known ligand.
